Reference: patent US20210198284A1, “GOLD COMPOSITIONS AND METHODS OF USE THEREOF” (THE UNIVERSITY OF MASSACHUSETTS, priority 2018, published 2021)

Legend:
Type in all cases: cell-based
[1] = tested on: A549 cells; experiment: Cytotoxicity assay (resazurin); details: 20 h, mean±S.E.M. from two independent experiments
Summary of the method: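 A549 cells (5×10^3/well) were exposed to two-fold serial dilutions from 128 μg/mL (compounds 9-17 from 1,280 μg/mL) for 20 h at 37 °C. Resazurin was then added for 3 h and fluorescence read at ex 560/em 590 nm. IC50 came from curve fitting of inhibition vs log concentration; triplicates, repeated twice.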

[2] = tested on: C. albicans ATCC 90028; experiment: Antifungal MIC
[3] = tested on: C. neoformans ATCC 208821; experiment: Antifungal MIC; details: for MIC: C. neoformans ATCC 208821
[4] = tested on: C. neoformans KN99; experiment: Antifungal MIC
[5] = tested on: E. cloacae; experiment: Antimicrobial screening of auranofin analogs
Text: (§1) Auranofin analogs were synthesized by varying the structure of the thio-sugar ligand and the phosphine ligands. These analogs were screened for antimicrobial activity against 5 key ESKAPE pathogens and E. coli. (Table 3). The “ESKAPE” pathogens consist of six pathogens with growing multidrug resistant virulence: Enterococcus faecium (gram-positive), Staphylococcus aureus (gram-positive), Klebsiella pneumoniae (gram-negative), Acinetobacter (gram-negative), Pseudomonas aeruginosa (gram-negative) and Eterobacter (gram-negative). According to the data from the Centers for Disease Control and Prevention (CDC), two-thirds of all clinical infections are caused by these six ESKAPE bacteria.

[6] = tested on: E. faecalis; experiment: Antimicrobial screening of auranofin analogs
Text: as §1

[7] = tested on: K. pneumoniae; experiment: Antimicrobial screening of auranofin analogs
Text: as §1

[8] = tested on: MRSA; experiment: Antimicrobial screening of auranofin analogs
Text: as §1

[9] = tested on: P. aeruginosa; experiment: Antimicrobial screening of auranofin analogs
Text: as §1

[10] = tested on: S. aureus; experiment: Antimicrobial screening of auranofin analogs
Text: as §1

[11] = tested on: Gram-negative strains; experiment: In vitro antimicrobial activities, Gram-negative strains taken together; details: Gram-negative strains tested
Description: Antibacterial assay. The minimum inhibitory concentrations (MICs) and the minimum bactericidal concentrations (MBCs) were determined by the broth microdilution method as described in the CLSI (The Clinical & Laboratory Standards Institute) guidelines (Performance standards for antimicrobial susceptibility testing: Clinical and Laboratory Standards Institute (CLSI), Twenty-Fifth informational supplement. Document M100-S25: […]; Vol. 35). All bacterial strains were cultured in cation-adjusted Muller Hinton broth (CAMHB) up to log-phase and then diluted to give a concentration of 7.5×10^5 CFU/mL. The gold complexes were dissolved in DMSO or water as stock solutions, which were then serially diluted two-fold in a 96-well plate. Aliquots (100 μL) of the dilutions were mixed with equal volumes of the bacterium suspension in a 96 well plate (in triplicates). The plates were incubated at 37° C. for 18 h without shaking. Negative and positive controls were included in the same well plate with wells having the culture medium only and bacteria solution only, respectively. The sample concentration that gave inhibition values above 90% were determined as MICs as calculated from absorbance values at 600 nm (OD600) obtained using a Tecan SPARK IOM plate reader. […] The sample concentration that gave no colony formed on agar plates were determined as MBCs. […]

(2,3,4,6-Tetra-O-acetyl-1-thio-β-D-glucopyranosato) (triethylphosphine) gold(I) [Compound 1, reference compound]
IC50 against A549 cells [1]: 7.7 ± 1.3 µg/mL
MIC [2]: >32 µg/mL
antifungal activity in words ([3]; C. neoforman, strain not named): moderate antifungal activity
MIC [3]: 8 µg/mL
MIC [4]: 16 µg/mL
activity in words [5]: lacked significant activity
bactericidal activity at the lowest tested concentration [6]: ≤ 0.5 µg/mL
activity in words [7]: lacked significant activity
bactericidal activity at the lowest tested concentration [8]: ≤ 0.25 µg/mL
activity in words [9]: lacked significant activity
bactericidal activity at the lowest tested concentration [10]: ≤ 0.5 µg/mL
activity in words [11]: no activity

(2-Aminobenzenethiolato)(triethylphosphine) gold(I) [Compound 19]
IC50 against A549 cells [1]: 7.5 ± 0.1 µg/mL
MIC [4]: 2 µg/mL

(2-Mercaptoethanolato)(trimethylphosphine) gold (I) [Compound 27]
IC50 against A549 cells [1]: 12.3 ± 3.1 µg/mL

[2,3,4,6-Tetra-O-acetyl-α-D-glucopyranosyl (1→4)-2,3,6-tri-O-acetyl-1-thio-β-D-glucopyranosato](triethylphosphine) gold(I) [Compound 5]
IC50 against A549 cells [1]: 15.2 ± 0.3 µg/mL
MIC [2]: >32 µg/mL
MIC [3]: >32 µg/mL
